# ChEMBL document CHEMBL1201862, “PubChem BioAssay data set” (2004)
# Active and inactive are the calls of the source.
# How the values were obtained:
# [1] = NIH-3T3 fibroblast cytotoxicity, dose response, cytotoxicity control, cell-based, fluorescence, Alamar Blue, secondary assay (AID 2327); type: functional;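 also: NIH-3T3 mouse fibroblasts cultured with fluconazole at 8 µg/mL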
# Exodeoxyribonuclease V = molecular target: T1, Exodeoxyribonuclease V (Escherichia coli (strain K12), UniProt P04993+P07648+P08394); experiment: E. coli RecBCD inhibitors, dose response, counter-screen for AddAB inhibitor project, absorbance, V66 E. coli, mutant T4 phage (AID 492957); type: functional, cell-based, Escherichia coli str. K-12 substr. MG1655
# T1 sequence (P04993 whole entry): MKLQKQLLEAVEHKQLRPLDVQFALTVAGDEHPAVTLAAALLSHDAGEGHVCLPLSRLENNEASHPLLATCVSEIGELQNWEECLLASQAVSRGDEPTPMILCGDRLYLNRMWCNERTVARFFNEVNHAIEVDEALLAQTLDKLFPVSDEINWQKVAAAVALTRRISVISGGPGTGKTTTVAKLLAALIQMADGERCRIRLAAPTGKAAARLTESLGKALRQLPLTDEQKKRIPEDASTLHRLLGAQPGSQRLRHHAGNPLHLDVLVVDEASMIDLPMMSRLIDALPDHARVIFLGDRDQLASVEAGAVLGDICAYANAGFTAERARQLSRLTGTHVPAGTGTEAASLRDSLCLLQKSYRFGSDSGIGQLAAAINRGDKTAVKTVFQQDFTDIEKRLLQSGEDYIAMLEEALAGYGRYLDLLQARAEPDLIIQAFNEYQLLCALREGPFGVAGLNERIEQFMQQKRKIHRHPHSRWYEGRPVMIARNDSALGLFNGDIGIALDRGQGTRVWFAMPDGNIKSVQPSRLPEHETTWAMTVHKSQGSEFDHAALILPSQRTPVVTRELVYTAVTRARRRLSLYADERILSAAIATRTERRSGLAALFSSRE
# T1 sequence (P07648 whole entry): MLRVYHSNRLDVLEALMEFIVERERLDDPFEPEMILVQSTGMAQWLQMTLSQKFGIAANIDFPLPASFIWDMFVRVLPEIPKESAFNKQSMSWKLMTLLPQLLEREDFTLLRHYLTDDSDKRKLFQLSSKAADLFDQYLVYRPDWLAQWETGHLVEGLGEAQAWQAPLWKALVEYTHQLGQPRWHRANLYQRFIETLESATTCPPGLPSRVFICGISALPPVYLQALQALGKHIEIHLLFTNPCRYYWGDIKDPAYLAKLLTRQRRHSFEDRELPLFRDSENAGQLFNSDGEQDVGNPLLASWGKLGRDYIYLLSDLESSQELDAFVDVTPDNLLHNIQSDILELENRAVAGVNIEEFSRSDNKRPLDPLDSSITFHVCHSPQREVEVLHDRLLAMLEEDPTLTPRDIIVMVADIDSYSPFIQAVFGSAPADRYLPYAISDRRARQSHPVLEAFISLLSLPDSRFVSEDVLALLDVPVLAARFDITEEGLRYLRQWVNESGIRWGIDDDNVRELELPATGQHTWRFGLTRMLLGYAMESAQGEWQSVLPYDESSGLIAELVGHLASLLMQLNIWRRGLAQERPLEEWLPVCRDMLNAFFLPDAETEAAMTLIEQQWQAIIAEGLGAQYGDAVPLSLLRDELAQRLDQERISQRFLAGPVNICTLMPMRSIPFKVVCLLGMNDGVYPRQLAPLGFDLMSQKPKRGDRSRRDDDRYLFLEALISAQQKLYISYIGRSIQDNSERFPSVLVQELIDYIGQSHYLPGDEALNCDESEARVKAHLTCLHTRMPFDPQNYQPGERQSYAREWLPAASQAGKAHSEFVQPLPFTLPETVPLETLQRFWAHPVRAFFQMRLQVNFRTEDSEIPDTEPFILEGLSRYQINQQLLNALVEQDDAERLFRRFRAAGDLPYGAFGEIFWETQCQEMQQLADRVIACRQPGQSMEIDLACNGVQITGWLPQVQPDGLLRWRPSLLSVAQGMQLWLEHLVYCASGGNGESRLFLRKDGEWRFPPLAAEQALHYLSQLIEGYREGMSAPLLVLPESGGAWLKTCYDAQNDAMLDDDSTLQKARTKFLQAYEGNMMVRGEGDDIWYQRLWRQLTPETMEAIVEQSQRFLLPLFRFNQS
# T1 sequence (P08394 whole entry): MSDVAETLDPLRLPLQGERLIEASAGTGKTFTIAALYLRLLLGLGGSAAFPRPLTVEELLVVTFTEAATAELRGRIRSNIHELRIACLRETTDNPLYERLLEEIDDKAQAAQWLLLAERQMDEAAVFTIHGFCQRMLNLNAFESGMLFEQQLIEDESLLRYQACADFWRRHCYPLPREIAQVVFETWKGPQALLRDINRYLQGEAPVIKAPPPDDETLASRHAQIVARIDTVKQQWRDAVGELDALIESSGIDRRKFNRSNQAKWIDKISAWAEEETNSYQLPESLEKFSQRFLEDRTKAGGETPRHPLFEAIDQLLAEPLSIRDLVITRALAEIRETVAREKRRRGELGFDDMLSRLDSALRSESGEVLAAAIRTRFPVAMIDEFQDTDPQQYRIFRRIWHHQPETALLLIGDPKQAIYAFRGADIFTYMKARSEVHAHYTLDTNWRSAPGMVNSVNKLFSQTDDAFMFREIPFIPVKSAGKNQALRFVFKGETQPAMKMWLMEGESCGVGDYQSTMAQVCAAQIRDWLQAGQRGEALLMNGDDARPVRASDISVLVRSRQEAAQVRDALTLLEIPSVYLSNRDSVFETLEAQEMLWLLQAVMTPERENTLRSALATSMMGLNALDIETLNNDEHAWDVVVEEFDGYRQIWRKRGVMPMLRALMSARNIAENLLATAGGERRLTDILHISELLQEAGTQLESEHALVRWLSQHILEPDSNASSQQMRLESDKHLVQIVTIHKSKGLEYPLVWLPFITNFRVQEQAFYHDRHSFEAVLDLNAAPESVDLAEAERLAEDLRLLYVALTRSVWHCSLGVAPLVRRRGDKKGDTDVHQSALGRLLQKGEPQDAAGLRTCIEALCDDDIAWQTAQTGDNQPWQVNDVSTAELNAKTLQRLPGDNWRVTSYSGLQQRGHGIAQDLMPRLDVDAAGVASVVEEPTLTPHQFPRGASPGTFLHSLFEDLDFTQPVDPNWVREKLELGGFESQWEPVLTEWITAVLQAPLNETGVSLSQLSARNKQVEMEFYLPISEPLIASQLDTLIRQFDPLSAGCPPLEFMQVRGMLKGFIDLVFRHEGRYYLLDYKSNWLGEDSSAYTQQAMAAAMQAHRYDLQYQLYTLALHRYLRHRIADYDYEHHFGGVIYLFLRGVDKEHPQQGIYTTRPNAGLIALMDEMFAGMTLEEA
# [2] = Counterscreen for AddAB inhibitors: absorbance-based bacterial cell-based high throughput dose response assay for inhibitors of bacterial viability. [Related pubchem assays (depositor defined):AID435030, AID449728, AID449731, AID488942, AID488955, AID488956]; type: functional
compound,measurement,setting,value
CN1CCc2cc3c(c4c2[C@H]1[C@H](O)c1ccccc1-4)OCO3,EC50,[1],75.6 µM (active)
same,IC50,Exodeoxyribonuclease V,> 119 µM (inactive)
same,IC50,[2],> 119 µM (inactive)
